# From US20220306630A1, “AGONISTS OF ROR GAMMAt” (BRISTOL-MYERS SQUIBB COMPANY, priority 2019, published 2022)
# Target: T1, RORgT (Homo sapiens, UniProt P51449)
# T1 construct: Gal4 (fusion partner); expressed in transfected cells; host or cells: engineered Jurkat cells (Jurkat pEx/Gal/hRORγ CLBD/HYG pG5luc/blast)
# T1 sequence (P51449 267-516): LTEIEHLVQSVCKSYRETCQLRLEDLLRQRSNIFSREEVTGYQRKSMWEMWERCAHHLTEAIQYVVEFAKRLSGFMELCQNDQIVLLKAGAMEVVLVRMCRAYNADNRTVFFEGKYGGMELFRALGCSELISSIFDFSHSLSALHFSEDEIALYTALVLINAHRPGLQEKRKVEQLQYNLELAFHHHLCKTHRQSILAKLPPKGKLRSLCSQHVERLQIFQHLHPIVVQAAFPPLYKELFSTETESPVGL
# Experiment: RORgT Gal4 Luciferase Reporter Gene Assay
# Assay type: cell-based
# Conditions: engineered Jurkat cells overexpressing RORgT (LBD or full length) with Gal4 Luc reporter; 18 hours at 37° C.; 40 μM to 0.67 nM; read-out: RORg_GAL4 EC50
# Procedure: The compound and the cells were incubated for 18 hours at 37° C. in a cell culture incubator. Cells were then lysed with 15 uL of Steady-Glo Luciferase Assay reagent (Promega EZ550), followed by centrifuging the assay plates at 1500 RPM for 1 minute. Subsequently, the plates were read on the Envision (PerkinElmer). The inhibition of constitutive activity of RORgT achieved by graded concentrations of compound was calculated as a percentage of the luminescence signal window reduction over a control compound.
row,SMILES,EC50 [µM]
1,"COc1ccc(Oc2c(Cl)cc(NC(=O)OCCS(C)(=O)=O)cc2Cl)cc1C(C)C [Example 1, 2-(methylsulfonyl)ethyl (3,5-dichloro-4-(3-isopropyl-4-methoxyphenoxy)phenyl)carbamate]",0.829
2,"COc1ccc(Oc2c(Cl)cc(NC(=O)Cc3ccc(N)nc3)cc2Cl)cc1C(C)C [Example 2, 2-(6-aminopyridin-3-yl)-N-(3,5-dichloro-4-(3-isopropyl-4-methoxyphenoxy)phenyl)acetamide]",0.152
3,"COc1ccc(Oc2c(Cl)cc(NC(=O)Cc3ccc(S(C)(=O)=O)nc3)cc2Cl)cc1C(C)C [Example 3, N-(3,5-dichloro-4-(3-isopropyl-4-methoxyphenoxy)phenyl)-2-(6-(methylsulfonyl) Pyridin-3-yl)acetamide]",0.054
4,"COc1ccc(Oc2c(Cl)cc(NC(=O)Cc3cccc(C#N)c3)cc2Cl)cc1C(C)C [Example 4, 2-(3-cyanophenyl)-N-(3,5-dichloro-4-(3-isopropyl-4-methoxyphenoxy)phenyl) acetamide]",0.121
5,"COc1ccc(Oc2c(Cl)cc(NC(=O)Cc3cccc(C(N)=O)c3)cc2Cl)cc1C(C)C [Example 5, 3-(2-((3,5-dichloro-4-(3-isopropyl-4-methoxyphenoxy)phenyl)amino)-2-oxoethyl)benzamide]",0.437
6,"COc1ccc(Oc2c(Cl)cc(NC(=O)Cc3cncc(C(N)=O)c3)cc2Cl)cc1C(C)C [Example 6, 5-(2-((3,5-dichloro-4-(3-isopropyl-4-methoxyphenoxy)phenyl)amino)-2-oxoethyl)nicotinamide]",0.533
7,COc1ccc(Oc2c(Cl)cc(NC(=O)Cc3cn[nH]c3)cc2Cl)cc1C(C)C [Example 7],0.173
8,"COc1ccc(Oc2c(Cl)cc(NC(=O)CCn3cc(S(C)(=O)=O)cn3)cc2Cl)cc1C(C)C [Example 9, N-(3,5-dichloro-4-(3-isopropyl-4-methoxyphenoxy)phenyl)-3-(4-(methylsulfonyl)-1H-pyrazol-1-yl)propanamide]",0.081
9,"COc1ccc(Oc2c(Cl)cc(N3CC(CO)OC3=O)cc2Cl)cc1C(C)C (stereo not shown) [Example 10, 3-(3,5-dichloro-4-(3-isopropyl-4-methoxyphenoxy)phenyl)-5-(hydroxymethyl) oxazolidin-2-one]",2.12
10,"COc1ccc(Oc2c(Cl)cc(N3CC(CNC(C)=O)OC3=O)cc2Cl)cc1C(C)C (stereo not shown) [Example 11, N-((3-(3,5-dichloro-4-(3-isopropyl-4-methoxyphenoxy)phenyl)-2-oxooxazolidin-5-yl)methyl)acetamide]",0.077
11,"COc1ccc(Oc2c(Cl)cc(N3CC(CNS(N)(=O)=O)OC3=O)cc2Cl)cc1C(C)C (stereo not shown) [Example 12, N-[(3-{3,5-dichloro-4-[4-methoxy-3-(propan-2-yl)phenoxy]phenyl}-2-oxo-1,3-oxazolidin-5-yl)methyl]aminosulfonamide]",1.1
12,"COc1ccc(Oc2c(Cl)cc(NC(=O)Cc3cccnc3)cc2Cl)cc1C(C)(C)C [Example 13, N-(4-(3-(tert-butyl)-4-methoxyphenoxy)-3,5-dichlorophenyl)-2-(pyridin-3-yl)acetamide]",0.268
13,"CC(C)c1cc(F)cc(Oc2c(Cl)ccc(C(=O)NCc3ccc(S(N)(=O)=O)cc3)c2Cl)c1 [Example 16, 2,4-dichloro-3-(3-fluoro-5-isopropylphenoxy)-N-(4-sulfamoylbenzyl)benzamide]",0.0061
14,"COc1ncc(Oc2c(Cl)cc(NC(=O)CN3CCN(S(C)(=O)=O)CC3)cc2Cl)cc1C(C)C [Example 17, N-(3,5-dichloro-4-((5-isopropyl-6-methoxypyridin-3-yl)oxy)phenyl)-2-(4-(methylsulfonyl)piperazin-1-yl)acetamide]",0.0052
15,"COc1ccc(Oc2c(Cl)ccc(C#N)c2Cl)cc1C(C)C [Example 18, 2,4-dichloro-3-(3-isopropyl-4-methoxyphenoxy)benzonitrile]",1.87
16,"COc1ccc(Oc2c(Cl)ccc(C(=O)NCCn3ccnc3)c2Cl)cc1C(C)C [Example 19, N-(2-(1H-imidazol-1-yl)ethyl)-2,4-dichloro-3-(3-isomethoxyphenoxy)benzamide]",0.396
17,"COc1ccc(Oc2c(Cl)ccc(CNS(=O)(=O)c3cccnc3)c2Cl)cc1C(C)C [Example 21, N-(2,4-dichloro-3-(3-isopropyl-4-methoxyphenoxy)benzyl)pyridine-3-sulfonamide]",0.65

# The remaining lines, values ahead:
row,EC50 [µM],SMILES
1,0.296,"COc1ccc(Oc2c(Cl)cc(NC(=O)CC3CCCNC3)cc2Cl)cc1C(C)C (racemic) [Example 32, N-(3,5-dichloro-4-(3-isopropyl-4-methoxyphenoxy)phenyl)-2-(piperidin-3-yl)acetamide]"
2,0.356,"COc1ccc(Oc2c(Cl)cc(NC(=O)CC3CCCN(S(C)(=O)=O)C3)cc2Cl)cc1C(C)C (racemic) [Example 41, N-(3,5-dichloro-4-(3-isopropyl-4-methoxyphenoxy)phenyl)-2-(1-(methylsulfonyl)piperidin-3-yl)acetamide]"
3,0.207,"COc1ccc(Oc2c(Cl)cc(NC(=O)CC3CCCN(S(C)(=O)=O)C3)cc2Cl)cc1C(C)C (single isomer, unassigned) [Example 42, N-(3,5-dichloro-4-(3-isopropyl-4-methoxyphenoxy)phenyl)-2-(1-(methylsulfonyl)piperidin-3-yl)acetamide]"
4,0.246,"COc1ccc(Oc2c(Cl)cc(NC(=O)CC3CCCN(S(C)(=O)=O)C3)cc2Cl)cc1C(C)C (single isomer, unassigned) [Example 43, N-(3,5-dichloro-4-(3-isopropyl-4-methoxyphenoxy)phenyl)-2-(1-(methylsulfonyl)piperidin-3-yl)acetamide]"
5,0.095,"COc1ccc(Oc2c(Cl)ccc(CN(C)C(=O)c3ccc(S(C)(=O)=O)cc3)c2Cl)cc1C(C)C [Example 22, N-(2,4-dichloro-3-(3-isopropyl-4-methoxyphenoxy)benzyl)-N-methyl-4-(methylsulfonyl)benzamide]"
6,0.049,"COc1ncc(Oc2c(Cl)ccc(NC(=O)Cc3ccc(S(C)(=O)=O)cc3)c2Cl)cc1C(C)C [Example 23, N-(2,4-dichloro-3-((5-isopropyl-6-methoxypyridin-3-yl)oxy)phenyl)-2-(4-(methylsulfonyl)phenyl)acetamide]"
7,0.045,"COc1ncc(Oc2c(Cl)cc(NC(=O)CC3CCN(S(=O)(=O)C(C)C)CC3)cc2Cl)cc1C(C)C [Example 24, N-(3,5-dichloro-4-((5-isopropyl-6-methoxypyridin-3-yl)oxy)phenyl)-2-(1-(isopropylsulfonyl)piperidin-4-yl)acetamide]"
8,0.626,"CC(C)c1cc(F)cc(Oc2c(Cl)cc(NC(=O)OC3CCCN(S(C)(=O)=O)C3)cc2Cl)c1 (stereo not shown) [Example 25, 1-(methylsulfonyl)piperidin-3-yl (3,5-dichloro-4-(3-fluoro-5-isopropylphenoxy)phenyl)carbamate]"
9,0.322,"CC(C)c1cc(F)cc(Oc2c(Cl)cc(NC(=O)NC3CCCN(S(C)(=O)=O)C3)cc2Cl)c1 (stereo not shown) [Example 26, 1-(3,5-dichloro-4-(3-fluoro-5-isopropylphenoxy)phenyl)-3-(1-(methylsulfonyl)piperidin-3-yl)urea]"
10,0.03,"COc1ncc(Oc2c(Cl)cc(NC(=O)CC3CCN(S(C)(=O)=O)CC3)cc2Cl)cc1C(C)(C)O [Example 27, N-(3,5-dichloro-4-((5-(2-hydroxypropan-2-yl)-6-methoxypyridin-3-yl)oxy)phenyl)-2-(1-(methylsulfonyl)piperidin-4-yl)acetamide]"
11,0.0069,"COc1ncc(Oc2c(Cl)cc(NC(=O)CC3CCN(S(C)(=O)=O)CC3)cc2Cl)cc1C(C)(C)F [Example 28, N-(3,5-dichloro-4-((5-(2-fluoropropan-2-yl)-6-methoxypyridin-3-yl)oxy)phenyl)-2-(1-(methylsulfonyl)piperidin-4-yl)acetamide]"
12,0.0058,"CC(C)(F)c1cc(Oc2c(Cl)cc(NC(=O)CC3CCN(S(C)(=O)=O)CC3)cc2Cl)cnc1OC(F)F [Example 29, N-(3,5-dichloro-4-((6-(difluoromethoxy)-5-(2-fluoropropan-2-yl)pyridin-3-yl)oxy)phenyl)-2-(1-(methylsulfonyl)piperidin-4-yl)acetamide]"
13,0.216,"COc1ncc(Oc2c(Cl)ccc(C(=O)N3CCC4(CC3)CN(S(C)(=O)=O)C4)c2Cl)cc1C(C)(C)F [Example 30, (2,4-dichloro-3-((5-(2-fluoropropan-2-yl)-6-methoxypyridin-3-yl)oxy)phenyl)(2-(methylsulfonyl)-2,7-diazaspiro[3.5]nonan-7-yl)methanone]"
14,4.28,"CCS(=O)(=O)Nc1cc(Cl)c(Oc2ccc(OC)c(C(C)C)c2)c(Cl)c1 [Example 33, N-(3,5-dichloro-4-(3-isopropyl-4-methoxyphenoxy)phenyl)ethanesulfonamide]"
15,1.06,"COc1ccc(Oc2c(Cl)cc(NC(=O)NC(C)C)cc2Cl)cc1C(C)C [Example 34, 1-(3,5-dichloro-4-(3-isopropyl-4-methoxyphenoxy)phenyl)-3-isopropylurea]"
16,2.05,"COc1ccc(Oc2c(Cl)cc3[nH]c(-c4ccccc4)nc3c2Cl)cc1C(C)C [Example 35, 4,6-dichloro-5-(3-isopropyl-4-methoxyphenoxy)-2-phenyl-1H-benzo[d]imidazole]"
17,0.455,"COc1ccc(Oc2c(Cl)cc(NC(=N)Cc3cccnc3)cc2Cl)cc1C(C)C [Example 36, N-(3,5-dichloro-4-(3-isopropyl-4-methoxyphenoxy)phenyl)-2-(pyridin-3-yl)acetimidamide]"
